Reference: ChEMBL document CHEMBL1149668, “Synthesis and cytotoxicity of desmethoxycallipeltin B: lack of a quinone methide for the cytotoxicity of callipeltin B” (Bioorg Med Chem Lett, 2007)

System: HeLa
Test: Cytotoxicity against HeLa cells by MTT […] assay
Format: functional, cell-based
Conditions: Homo sapiens

SMILES | IC50 [µM]
CO[C@H](c1ccc(O)cc1)[C@H]1NC(=O)[C@H](CCC(N)=O)N(C)C(=O)[C@H](CC(C)C)NC(=O)[C@@H](CCCNC(=N)N)NC(=O)[C@@H]([C@@H](C)O)NC(=O)[C@H](NC(=O)[C@H]2NC(=O)[C@H](C)[C@@H]2C)[C@@H](C)OC(=O)[C@H](C)N(C)C1=O [CALLIPELTIN B] | 98
CC(C)C[C@@H]1NC(=O)[C@@H](CCCNC(=N)N)NC(=O)[C@@H]([C@@H](C)O)NC(=O)[C@H](NC(=O)[C@H]2NC(=O)[C@H](C)[C@@H]2C)[C@@H](C)OC(=O)[C@H](C)N(C)C(=O)[C@@H](Cc2ccc(O)cc2)NC(=O)[C@H](CCC(N)=O)N(C)C1=O [DESMETHOXYCALLIPELTIN B] | 128
